Data: patent US10106627B2, “Process for the preparation of polymeric biosurfactants” (priority 2014, dated 2018)

Key:
[1] = test system: nitric oxide (NO) in RAW 264.7 macrophages; assay: LPS-stimulated nitric oxide (Griess reaction) in RAW 264.7 macrophages; format: cell-based, mouse; conditions: 20 μg ml^−1; LPS 100 ng ml^−1 24 h; LPS alone 66.87%
Procedure: After 24 h, 100 μl of culture supernatant was collected and mixed with 100 μl of Griess reagent in a 96-well plate and incubated for 15 min at room temperature. The optical density was spectroscopically measured at 540 nm using TRIAD multimode reader (Dynex Technologies, Inc., Chantilly, Va.). The experiments were run in triplicates and reported as the percentage of NO produced.

[2] = Critical micelle concentration; format: physicochemical
Procedure: (§1) The bacterial strains producing biosurfactants were isolated from the petroleum-contaminated soil sample collected from Mupkal, Nizamabad, Andhra Pradesh, India (latitude 18.90° N and longitude 78.36° E). The soil sample was enriched by placing 1.0 g of soil sample in 100 ml of mineral salts medium supplemented with N-hexadecane (1%, v/v) as a sole carbon source for three weeks. The enriched sample was serially diluted and then plated on the mineral salts agar plates overlaid with N-hexadecane which acted as a sole carbon source. The colonies that appeared on the plates upon incubation at 37° C. for 72 h were purified for 2-3 times on nutrient agar plates. The isolated pure microorganisms were cultured in liquid mineral salts medium at 37° C. for 72 h. The cells were separated by centrifugation and the cell-free supernatant was measured for the reduction in surface tension values by Wilhelmy plate method using a Du-Nouy K100MK2 Processor Tensiometer (Krüss, Hamburg, Germany). The concentration series was generated automatically with a computer-controlled Dosimat (Metrohm AG, Switzerland). […] The critical micelle concentration (CMC) was measured by plotting the concentration of surfactant as a function of surface tension, and the CMC was taken as the point where the slope of the curve abruptly changed. […]

TNF-α in RAW 264.7 cells = assay: LPS-induced TNF-α ELISA in RAW 264.7 cells; format: cell-based, mouse; conditions: 50 μg ml^−1; LPS 100 ng ml^−1 24 h; LPS alone 215.79
Procedure: The effect of Brevisan, Microsan and M-EPS-Au-NP on the release of proinflammatory cytokines, TNF-α and IL-6, was measured using ELISA kits (Biosource International, Camarillo, Calif., USA). In independent experiments, the RAW-264.7 cells were treated with different concentrations (1, 10, 50 and 100 μg ml^−1) of Brevisan, Microsan and M-EPS-Au-NP and then stimulated with 100 ng ml^−1 of LPS. The supernatants were harvested after 24 h and the concentrations of TNF-α and IL-6 was measured using an ELISA kit according to the manufacturer's instructions.

[3] = DPPH free radical scavenging assay (cell free); format: biochemical; conditions: 35° C., 30 min
Procedure: The antioxidant activity of Microsan from Microbacterium sp. strain BS-2 and Brevisan from Brevibacillus sp. strain BS-207 in cell free system was measured by its inhibitory activity on the generation of DPPH free radicals, superoxide anions (O^2−), lipid peroxidation and erythrocyte hemolysis. The DPPH free radical scavenging assay was performed using 2,2-diphenyl-1-picrylhydrazyl (DPPH) free radical scavenging method [Ara. N. and Hasan, N. (2009) Res. J. Med. Medical Sci. 4, 107-110]. Different concentrations of Microsan and Brevisan were mixed individually with 150 μl of 160 μM methanolic solution of DPPH and incubated at 35° C. for 30 min in dark. The effective concentration (EC50) was calculated by measuring the absorbance of the samples at 517 nm. The superoxide anion scavenging was measured using phenazine methosulfate-nicotinamide adenine dinucleotide (PMS/NADH) method as previously described [Liu, F., Ooi, V. E. and Chang, S. T. (1997) Life Sci. 60, 763-771]. The lipid peroxidation assay was performed using the previously described method [Zhang, Q., Yu, P., Li, Z., Zhang, H., Xu, Z. and Li, P. (2003) J. Appl. Phycol. 15, 305-310] which is based on measuring the lipid peroxide decomposed product malondialdehyde (MDA). […] Samples were incubated at 37° C. for 30 min and the absorbance was measured at 540 nm. […]

[4] = Surface tension, Wilhelmy plate method; format: physicochemical; conditions: from 72
Procedure: as §1

β-D-glucuronyl-(1-2)-D-mannosyl-(1-4)-D-glucose [Microsan]
LPS-stimulated NO levels after treatment [1]: 20.05% | critical micelle concentration (CMC) [2]: 75 mg/L | TNF-α production after treatment (TNF-α in RAW 264.7 cells): 98.88 µg/mL | EC50 DPPH free radical scavenging [3]: 40.78 µg/mL | surface tension of water reduced to [4]: 31.2 mN m^−1
